Test results from PubChem BioAssay (NCI).
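96-well plates; 48 h exposure; 5 concentrations. Endpoints by linear interpolation between flanking doses. Not reached: highest tested concentration assigned. TGI marks complete inhibition of growth.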 Where a SMILES comes first, the peptide text is derived from it. The star is where a group is joined. Cbz = O=C(OCc1ccccc1)*

Test system: BT-549 breast
Experiment: NCI tumour cell line growth inhibition, 48 h

Compound | TGI [µM]
Cc1cc2oc(=N)c(C#N)c(C)c2cc1C | > 100
CN(C)CCCC12CCCCC1=Nc1ccccc12 (configuration not stated) | > 100
CCOC(=O)CC[C@H](NC(=O)[C@H](N)Cc1ccc(N(CCCl)CCCl)cc1)C(=O)OCC | > 65.3
CN=C(N=Nc1c(O)[nH]c2ccccc12)SCC(=O)c1ccc(Br)cc1 | > 100
O=C1CCCC1CN1CCCC1 (configuration not stated) | 3.09
Nc1nc(N)c2c3c(cnc2n1)CC(c1ccccc1)CC3 (configuration not stated) | 81.8
N#Cc1c(N)nc2n[nH]c(N)c2c1-c1ccc(Cl)cc1 | 12.7
COc1cc(NS(C)(=O)=O)ccc1Nc1c2ccccc2nc2c1[nH]c1ccc(NC3OC(CO)C(O)C(O)C3O)cc12 (configuration not stated) | 5.69
COC(=O)C1=C(C(=O)NNc2ccccc2)N(c2cccnc2Cl)C(c2ccccc2)=CC1c1ccccc1 (configuration not stated) | > 100
O=C(O)CCC(NC(=O)OCc1ccccc1)C(=O)NC(Cc1cnc[nH]1)C(=O)O (stereo not drawn) (Cbz-Glu-His-OH; configuration not given here) | > 100
CCOC(=O)c1nnc2c(C(=O)OCC)c3ccccc3n2c1N | > 100
Clc1ccc(C2C3COc4ccccc4C3=NN2c2ccccc2)cc1 (configuration not stated) | > 100
CC12CC(c3ccccc3O1)C(C(=O)Nc1ccc(Cl)cc1Cl)C(=O)N2 (configuration not stated) | > 100
NC(=O)C(C(N)=O)=C(O)C(=O)/C=C(\O)c1ccccc1 | > 100
COC(=O)C1=C(O)C(C(=O)OC)[C@]2(O)[C@H](C(=O)OC)[C@H]1C[C@@H](c1ccc(C(F)(F)F)cc1)[C@H]2C(=O)OC (some centres not stated) | > 100
CCOC(=O)C12OC(CCC1=O)C(C(=O)OC)=C2C(=O)OC (configuration not stated) | > 10
NNC(=O)c1n[nH]nc1C(=O)NN | 29.3
CCOC(=O)NC(Nc1ccc(S(=O)(=O)Nc2nc(C)cc(C)n2)cc1)(C(=O)OCC)C(F)(F)F (configuration not stated) | > 100
CN1CCN(C(=S)N2CCN(C)CC2)CC1 | > 100
Nc1nc(SC/C=C/c2ccccc2)c2[nH]cnc2n1 | > 100
CC(=O)c1c(C)n([O-])c2cc(Cl)c(Cl)cc2[n+]1=O | > 100
O=c1c(/C=C/c2c(O)ccc3ccccc23)nnc2sc(-c3cccc(Br)c3)nn12 | 56.7
C/C=C(/C)C(=O)O[C@@H]1CCN2CC[C@H](COC(=O)/C(=C/C)CO)C12 (some centres not stated) | > 100

Test system: RPMI-8226 leukemia
Experiment: NCI tumour cell line growth inhibition, 48 h

Compound | TGI [µM]
Cc1cc2oc(=N)c(C#N)c(C)c2cc1C | > 100
CN(C)CCCC12CCCCC1=Nc1ccccc12 (configuration not stated) | > 100
CCOC(=O)CC[C@H](NC(=O)[C@H](N)Cc1ccc(N(CCCl)CCCl)cc1)C(=O)OCC | > 100
CN=C(N=Nc1c(O)[nH]c2ccccc12)SCC(=O)c1ccc(Br)cc1 | > 100
O=C1CCCC1CN1CCCC1 (configuration not stated) | 6.8
Nc1nc(N)c2c3c(cnc2n1)CC(c1ccccc1)CC3 (configuration not stated) | > 100
N#Cc1c(N)nc2n[nH]c(N)c2c1-c1ccc(Cl)cc1 | > 100
COc1cc(NS(C)(=O)=O)ccc1Nc1c2ccccc2nc2c1[nH]c1ccc(NC3OC(CO)C(O)C(O)C3O)cc12 (configuration not stated) | 3.85
COC(=O)C1=C(C(=O)NNc2ccccc2)N(c2cccnc2Cl)C(c2ccccc2)=CC1c1ccccc1 (configuration not stated) | 82.8
O=C(O)CCC(NC(=O)OCc1ccccc1)C(=O)NC(Cc1cnc[nH]1)C(=O)O (stereo not drawn) (Cbz-Glu-His-OH; configuration not given here) | > 100
CCOC(=O)c1nnc2c(C(=O)OCC)c3ccccc3n2c1N | 6.39
Clc1ccc(C2C3COc4ccccc4C3=NN2c2ccccc2)cc1 (configuration not stated) | 7.32
CC12CC(c3ccccc3O1)C(C(=O)Nc1ccc(Cl)cc1Cl)C(=O)N2 (configuration not stated) | > 100
NC(=O)C(C(N)=O)=C(O)C(=O)/C=C(\O)c1ccccc1 | 31.7
COC(=O)C1=C(O)C(C(=O)OC)[C@]2(O)[C@H](C(=O)OC)[C@H]1C[C@@H](c1ccc(C(F)(F)F)cc1)[C@H]2C(=O)OC (some centres not stated) | > 100
CCOC(=O)C12OC(CCC1=O)C(C(=O)OC)=C2C(=O)OC (configuration not stated) | > 10
NNC(=O)c1n[nH]nc1C(=O)NN | > 100
CCOC(=O)NC(Nc1ccc(S(=O)(=O)Nc2nc(C)cc(C)n2)cc1)(C(=O)OCC)C(F)(F)F (configuration not stated) | > 100
CN1CCN(C(=S)N2CCN(C)CC2)CC1 | > 76.7
Nc1nc(SC/C=C/c2ccccc2)c2[nH]cnc2n1 | > 100
CC(=O)c1c(C)n([O-])c2cc(Cl)c(Cl)cc2[n+]1=O | 25.4
O=c1c(/C=C/c2c(O)ccc3ccccc23)nnc2sc(-c3cccc(Br)c3)nn12 | > 100
C/C=C(/C)C(=O)O[C@@H]1CCN2CC[C@H](COC(=O)/C(=C/C)CO)C12 (some centres not stated) | > 87.8

Test system: SF-295 CNS
Experiment: NCI tumour cell line growth inhibition, 48 h

Compound | TGI [µM]
Cc1cc2oc(=N)c(C#N)c(C)c2cc1C | > 100
CN(C)CCCC12CCCCC1=Nc1ccccc12 (configuration not stated) | > 100
CCOC(=O)CC[C@H](NC(=O)[C@H](N)Cc1ccc(N(CCCl)CCCl)cc1)C(=O)OCC | > 77.8
CN=C(N=Nc1c(O)[nH]c2ccccc12)SCC(=O)c1ccc(Br)cc1 | 49.6
O=C1CCCC1CN1CCCC1 (configuration not stated) | > 100
Nc1nc(N)c2c3c(cnc2n1)CC(c1ccccc1)CC3 (configuration not stated) | > 100
N#Cc1c(N)nc2n[nH]c(N)c2c1-c1ccc(Cl)cc1 | 42.7
COc1cc(NS(C)(=O)=O)ccc1Nc1c2ccccc2nc2c1[nH]c1ccc(NC3OC(CO)C(O)C(O)C3O)cc12 (configuration not stated) | 0.13
COC(=O)C1=C(C(=O)NNc2ccccc2)N(c2cccnc2Cl)C(c2ccccc2)=CC1c1ccccc1 (configuration not stated) | 56
O=C(O)CCC(NC(=O)OCc1ccccc1)C(=O)NC(Cc1cnc[nH]1)C(=O)O (stereo not drawn) (Cbz-Glu-His-OH; configuration not given here) | > 100
CCOC(=O)c1nnc2c(C(=O)OCC)c3ccccc3n2c1N | > 100
Clc1ccc(C2C3COc4ccccc4C3=NN2c2ccccc2)cc1 (configuration not stated) | > 100
CC12CC(c3ccccc3O1)C(C(=O)Nc1ccc(Cl)cc1Cl)C(=O)N2 (configuration not stated) | > 100
NC(=O)C(C(N)=O)=C(O)C(=O)/C=C(\O)c1ccccc1 | > 100
COC(=O)C1=C(O)C(C(=O)OC)[C@]2(O)[C@H](C(=O)OC)[C@H]1C[C@@H](c1ccc(C(F)(F)F)cc1)[C@H]2C(=O)OC (some centres not stated) | 48.3
CCOC(=O)C12OC(CCC1=O)C(C(=O)OC)=C2C(=O)OC (configuration not stated) | > 10
NNC(=O)c1n[nH]nc1C(=O)NN | > 100
CCOC(=O)NC(Nc1ccc(S(=O)(=O)Nc2nc(C)cc(C)n2)cc1)(C(=O)OCC)C(F)(F)F (configuration not stated) | > 100
CN1CCN(C(=S)N2CCN(C)CC2)CC1 | > 100
Nc1nc(SC/C=C/c2ccccc2)c2[nH]cnc2n1 | > 100
CC(=O)c1c(C)n([O-])c2cc(Cl)c(Cl)cc2[n+]1=O | > 100
O=c1c(/C=C/c2c(O)ccc3ccccc23)nnc2sc(-c3cccc(Br)c3)nn12 | > 100
C/C=C(/C)C(=O)O[C@@H]1CCN2CC[C@H](COC(=O)/C(=C/C)CO)C12 (some centres not stated) | > 100

Test system: NCI-H460 lung
Experiment: NCI tumour cell line growth inhibition, 48 h

Compound | TGI [µM]
Cc1cc2oc(=N)c(C#N)c(C)c2cc1C | > 100
CN(C)CCCC12CCCCC1=Nc1ccccc12 (configuration not stated) | > 100
CCOC(=O)CC[C@H](NC(=O)[C@H](N)Cc1ccc(N(CCCl)CCCl)cc1)C(=O)OCC | 17.3
CN=C(N=Nc1c(O)[nH]c2ccccc12)SCC(=O)c1ccc(Br)cc1 | > 38.3
O=C1CCCC1CN1CCCC1 (configuration not stated) | > 58.4
Nc1nc(N)c2c3c(cnc2n1)CC(c1ccccc1)CC3 (configuration not stated) | > 100
N#Cc1c(N)nc2n[nH]c(N)c2c1-c1ccc(Cl)cc1 | > 96.7
COc1cc(NS(C)(=O)=O)ccc1Nc1c2ccccc2nc2c1[nH]c1ccc(NC3OC(CO)C(O)C(O)C3O)cc12 (configuration not stated) | 0.196
COC(=O)C1=C(C(=O)NNc2ccccc2)N(c2cccnc2Cl)C(c2ccccc2)=CC1c1ccccc1 (configuration not stated) | > 100
O=C(O)CCC(NC(=O)OCc1ccccc1)C(=O)NC(Cc1cnc[nH]1)C(=O)O (stereo not drawn) (Cbz-Glu-His-OH; configuration not given here) | > 100
CCOC(=O)c1nnc2c(C(=O)OCC)c3ccccc3n2c1N | > 100
Clc1ccc(C2C3COc4ccccc4C3=NN2c2ccccc2)cc1 (configuration not stated) | > 100
CC12CC(c3ccccc3O1)C(C(=O)Nc1ccc(Cl)cc1Cl)C(=O)N2 (configuration not stated) | > 100
NC(=O)C(C(N)=O)=C(O)C(=O)/C=C(\O)c1ccccc1 | > 100
COC(=O)C1=C(O)C(C(=O)OC)[C@]2(O)[C@H](C(=O)OC)[C@H]1C[C@@H](c1ccc(C(F)(F)F)cc1)[C@H]2C(=O)OC (some centres not stated) | > 100
CCOC(=O)C12OC(CCC1=O)C(C(=O)OC)=C2C(=O)OC (configuration not stated) | > 10
NNC(=O)c1n[nH]nc1C(=O)NN | > 100
CCOC(=O)NC(Nc1ccc(S(=O)(=O)Nc2nc(C)cc(C)n2)cc1)(C(=O)OCC)C(F)(F)F (configuration not stated) | > 100
CN1CCN(C(=S)N2CCN(C)CC2)CC1 | > 21.8
Nc1nc(SC/C=C/c2ccccc2)c2[nH]cnc2n1 | > 100
CC(=O)c1c(C)n([O-])c2cc(Cl)c(Cl)cc2[n+]1=O | 56
O=c1c(/C=C/c2c(O)ccc3ccccc23)nnc2sc(-c3cccc(Br)c3)nn12 | > 100
C/C=C(/C)C(=O)O[C@@H]1CCN2CC[C@H](COC(=O)/C(=C/C)CO)C12 (some centres not stated) | > 100
